Results published in patent US9744204B1, “Multipath nutritional supplement for memory, cognition, and coordination” (priority 2015, dated 2017).

Key:
rats = settings: in rats; cited from earlier work
[1] = tested on: transgenic Drosophila melanogaster with an inducible tau; assay: Timed crawl test in transgenic flies with RU-486-inducible human tau; assay type: in vivo; settings: RU-486-treated tau transgenic flies, crawl tests twice each week as flies aged (FIG. 1A, FIG. 2)
Method: FIGS. 1A and 1B show typical screens of transgenic Drosophila melanogaster with an inducible tau (FIG. 1A) or Abeta (FIG. 1B), which greatly reduces neural function with age. To assay for fly behavior changes as neural dysfunction progresses, timed crawl tests in which the time it takes individual flies to climb to the top of a test vial were performed twice each week as the flies aged. Select compositions were screened for use on the transgenic flies using the genetically targeted substances believed to act on longevity genes. Different dose concentrations were tested. Two hundred flies (1 fly of each sex in each of 100 vials) for each test condition were used. RU-486 was added to all fly samples except the untreated controls named Untreated (dashed blue line) and the A+P+T Control) about 4-5 days after flies were placed in vials. The first crawl tests were started about 9-10 days after insertion into vials and 5-6 days after RU addition (see FIGS. 1A and 1B). In Untreated Controls (dashed blue line), young flies typically crawl to the top of the vial quickly in 7-10 seconds, while older flies have progressively longer crawl times of up to 40 seconds or more with advancing age. The RU Controls (solid blue line) were treated with RU-486 without any helper substance and therefore have poor crawling tests and die early at 7 weeks (tau in FIG. 1A) or 5 weeks (Abeta in FIG. 1B). […]

[2] = tested on: transgenic Drosophila melanogaster with an inducible Abeta; assay: Timed crawl test in transgenic flies with RU-486-inducible human Abeta; assay type: in vivo; settings: RU-486-treated Abeta transgenic flies (FIG. 1B)
Method: To assay for fly behavior changes as neural dysfunction progresses, timed crawl tests in which the time it takes individual flies to climb to the top of a test vial were performed twice each week as the flies aged. Select compositions were screened for use on the transgenic flies using the genetically targeted substances believed to act on longevity genes. Different dose concentrations were tested. Two hundred flies (1 fly of each sex in each of 100 vials) for each test condition were used. RU-486 was added to all fly samples except the untreated controls named Untreated (dashed blue line) and the A+P+T Control) about 4-5 days after flies were placed in vials. The first crawl tests were started about 9-10 days after insertion into vials and 5-6 days after RU addition (see FIGS. 1A and 1B). […] The single substances and substance combinations are shown by the one letter codes: A=Astragalus, P=Pterocarpus, T=L-Theanine, G=Genistein, B=Berberine, L=Lithium, and S=Selenium.
To assay for fly neural functional decline with age as Abeta, tau, or the Park gene is induced, crawl times were used to test substances initially picked from the genomics work.

| SMILES | neuroprotection (rats) | crawl time / delay of neuronal dysfunction induced by human tau expression [1] | crawl time / protection against dementia induced by human Abeta expression [2] |
| --- | --- | --- | --- |
| CCNC(=O)CC[C@H](N)C(=O)O [L-Theanine, gamma-glutamylethylamide] | neuroprotective | – | – |
| [Se] [Selenium] | – | can protect against dementia | can protect against dementia |
| CC12CC3CC(C)(C1)CC(N)(C3)C2 [Mementin, reference compound] | – | works very well | – |
